Source: PMC3532596, “Cell-based optimization of novel benzamides as potential antimalarial leads” (Bioorganic & Medicinal Chemistry Letters, 2009)
≈ marks a conversion by molar mass, not a printed value. One block for each molecule: values may come before it.

Tests used:
[1] = system: P. falciparum 3D7 strain; experiment: cell-based P. falciparum proliferation assay, 3D7 strain; details: Plasmodium falciparum; chloroquine sensitive 3D7 strain; means of two experiments
From the text: (§1) Currently there is a need for novel chemical scaffolds with different mechanisms of action, since most of the current approved antimalarial drugs belong to the aminoquinoline family. In order to find new chemical scaffolds, we initiated a compound screen using our in-house kinase inhibitor collection and subjected them to a cell-based of Plasmodium falciparum proliferation assay[5,6] We envisioned that the hits arising from this screen can be rapidly optimized by leveraging our past experiences with these compounds series in alternative target-classes/indications. Furthermore, we thought that it would be prudent to remove the human kinase activity early on during the compound optimization phase to negate the possibility of toxicity arising from host-related off-target activities (Scheme 1).

[2] = system: P. falciparum W2 strain; experiment: cell-based P. falciparum proliferation assay, W2 strain; set-up: species or system Plasmodium falciparum; details: for EC50: Plasmodium falciparum, W2, read-out: P. falciparum W2 strain EC50
From the text: as §1
One important aspect of antimalarial drug discovery is to identify agents that are active against the drug-resistant parasites. […] While most of these resistance phenotypes are due to point mutations in the drug target, the W2 strain also contains an amplification of the P. falciparum multidrug resistance transporter.[10]

[3] = snapshot PK in mice, single oral dose; assay type: in vivo; details: mice balb/c, 20 mg/kg orally, PEG300/D5W 3:1 solution, free base; for AUC(0-t) / Cmax at 5 h / Tmax at 5 h: mouse, in vivo, po
Method: Mice were dosed a single dose of 20 mg/kg orally and their exposure levels were monitored over a period of 5 h and results are summarized in Table 6.[11]
[11] Snapshot PK is developed and used by GNF pharmacology group as a rapid pharmacokinetic screening approach. The pharmacokinetic parameters of the compounds are studied in a single mode of administration (generally PO arm) over a period of 5 h. The study is carried out on two animals and the samples are pooled together at each time point. This high throughput approach offers exposure levels with reasonable confidence without committing to extensive resources. For details, see: Liu, B.; Chang, J.; Gordon, W. P.; Isbell, J.; Zhou, Yi.; Tuntland, T. Drug Discovery Today2008, 13, 360–367.

[4] = system: P. falciparum strain 3BAG; experiment: P. falciparum proliferation assay, 3BAG strain; assay type: cell-based; details: Plasmodium falciparum
From the text: as §1
(§2) Compound 32 was profiled in an extended panel of 15 drug resistant strains (Table 5) and against a 6-cell line toxicity panel.

[5] = system: P. falciparum strain 7G8; experiment: P. falciparum proliferation assay, 7G8 strain; assay type: cell-based; details: Plasmodium falciparum
From the text: as §1, §2

[6] = system: P. falciparum strain C188; experiment: P. falciparum proliferation assay, C188 strain; assay type: cell-based; details: Plasmodium falciparum
From the text: as §1, §2

[7] = system: P. falciparum strain D10; experiment: P. falciparum proliferation assay, D10 strain; assay type: cell-based; details: Plasmodium falciparum
From the text: as §1, §2

[8] = system: P. falciparum strain D6; experiment: P. falciparum proliferation assay, D6 strain; assay type: cell-based; details: Plasmodium falciparum
From the text: as §1, §2

[9] = system: P. falciparum strain Dd2; experiment: P. falciparum proliferation assay, Dd2 strain; assay type: cell-based; details: Plasmodium falciparum
From the text: as §1, §2

[10] = system: P. falciparum strain Camp R; experiment: P. falciparum proliferation assay, Camp R strain; assay type: cell-based; details: Plasmodium falciparum
From the text: as §1, §2

[11] = system: P. falciparum strain FCB; experiment: P. falciparum proliferation assay, FCB strain; assay type: cell-based; details: Plasmodium falciparum
From the text: as §1, §2

[12] = system: P. falciparum strain FCR3; experiment: P. falciparum proliferation assay, FCR3 strain; assay type: cell-based; details: Plasmodium falciparum
From the text: as §1, §2

[13] = system: P. falciparum strain HB3; experiment: P. falciparum proliferation assay, HB3 strain; assay type: cell-based; details: Plasmodium falciparum
From the text: as §1, §2

[14] = system: P. falciparum strain K1; experiment: P. falciparum proliferation assay, K1 strain; assay type: cell-based; details: Plasmodium falciparum
From the text: as §1, §2

[15] = system: P. falciparum strain NF54; experiment: P. falciparum proliferation assay, NF54 strain; assay type: cell-based; details: Plasmodium falciparum
From the text: as §1, §2

[16] = system: P. falciparum strain TM91C235; experiment: P. falciparum proliferation assay, TM91C235 strain; assay type: cell-based; details: Plasmodium falciparum
From the text: as §1, §2

[17] = system: 15 P. falciparum strains; experiment: extended panel of 15 drug resistant strains; assay type: cell-based, Plasmodium falciparum; details: 15 strains, potencies relative to each other
From the text: as §2

[18] = system: 293T; assay type: cell-based; details: human
From the text: as §2

[19] = system: Ba/F3; assay type: cell-based; details: mouse
From the text: as §2

[20] = system: CHO; assay type: cell-based; details: Chinese hamster
From the text: as §2

[21] = system: HEp2; assay type: cell-based; details: human
From the text: as §2

[22] = system: HeLa; assay type: cell-based; details: human
From the text: as §2

[23] = system: Huh7; assay type: cell-based; details: human
From the text: as §2

[24] = 6-cell line toxicity panel, selectivity index; assay type: cell-based; details: cytotoxicity TC50 vs antiplasmodial potency; read-out: selectivity index (SI)
From the text: as §2

[25] = HT-thermodynamic solubility; assay type: physicochemical; details: pH 6.8; pH6.8, free base; preliminary
From the text: (§3) We also performed preliminary solubility and metabolic stability measurements on compound 32.

[26] = metabolic stability in mouse microsomes; assay type: in vitro ADME; details: preliminary
From the text: as §3

- EC50 [1]: 201 nM
- AUC(0–5h)/dose [3]: 6.94 (min ug/mL)/(mg/kg)
- AUC(0-t) [3]: 4.77 µM·h
- Cmax at 5 h [3]: 1170 nM
- Tmax at 5 h [3]: 3 h
Compound: O=C(Nc1cc(N2CCC(N3CCCC3)CC2)cc(C(F)(F)F)c1)c1cccc(C(F)(F)F)c1 [Compound 14]

- EC50 [1]: 402 nM
Compound: N#Cc1cccc(C(=O)Nc2cc(N3CCC(N4CCCC4)CC3)cc(C(F)(F)F)c2)c1 [Compound 15]

- EC50 [1]: 8250 nM
Compound: O=S(=O)(Nc1cc(N2CCC(N3CCCC3)CC2)cc(C(F)(F)F)c1)c1cccc(C(F)(F)F)c1 [Compound 16]

- EC50 [1]: 4680 nM
Compound: CN(C(=O)c1cc(N2CCC(N3CCCC3)CC2)cc(C(F)(F)F)c1)c1cccc(Cl)c1 [Compound 17]

- EC50 [1]: 452 nM
Compound: O=C(Nc1cccc(C(F)(F)F)c1)Nc1cc(N2CCC(N3CCCC3)CC2)cc(C(F)(F)F)c1 [Compound 18]

- EC50 [1]: 328 nM
Compound: O=C(Nc1cccc(Cl)c1)Nc1cc(N2CCC(N3CCCC3)CC2)cc(C(F)(F)F)c1 [Compound 19]

- EC50 [1]: 1980 nM
Compound: FC(F)(F)c1cccc(CNc2cc(N3CCC(N4CCCC4)CC3)cc(C(F)(F)F)c2)c1 [Compound 20]

- EC50 [1]: 638 nM
Compound: FC(F)(F)c1cccc(Nc2cc(N3CCC(N4CCCC4)CC3)cc(C(F)(F)F)c2)c1 [Compound 21]

- EC50 [1]: 734 nM
Compound: O=C(NCc1cccc(C(F)(F)F)c1)c1cc(N2CCC(N3CCCC3)CC2)cc(C(F)(F)F)c1 [Compound 22]

- EC50 [1]: 423 nM
Compound: O=C(NC1(c2cccc(C(F)(F)F)c2)CC1)c1cc(N2CCC(N3CCCC3)CC2)cc(C(F)(F)F)c1 [Compound 23]

- EC50 [1]: 766 nM
Compound: O=C(Nc1cccc(Cl)c1)c1cc(F)cc(N2CCC(N3CCCC3)CC2)c1 [Compound 24]

- EC50 [1]: 5880 nM
Compound: O=C(Nc1cccc(Cl)c1)c1cccc(N2CCC(N3CCCC3)CC2)c1 [Compound 25]

- EC50 [1]: 674 nM
Compound: O=C(Nc1cccc(Cl)c1)c1ccnc(N2CCC(N3CCCC3)CC2)c1 [Compound 26]

- EC50 [1]: 1670 nM
Compound: O=C(Nc1cccc(Cl)c1)c1cc(C(F)(F)F)nc(N2CCC(N3CCCC3)CC2)n1 [Compound 27]

- EC50 [1]: 2980 nM
Compound: Cc1cc(C(=O)Nc2cccc(Cl)c2)nc(N2CCC(N3CCCC3)CC2)n1 [Compound 28]

- EC50 [1]: 2080 nM
Compound: CC(C)(C)c1cc(C(=O)Nc2cccc(Cl)c2)nc(N2CCC(N3CCCC3)CC2)n1 [Compound 29]

More lines, now with the values behind:

Compound: CCCNC(=O)c1cc(N2CCC(N3CCCC3)CC2)cc(C(F)(F)F)c1 [Compound 4]
- EC50 [1]: 6480 nM

Compound: O=C(Nc1ccncn1)c1cc(N2CCC(N3CCCC3)CC2)cc(C(F)(F)F)c1 [Compound 5]
- EC50 [1]: 2160 nM

Compound: O=C(Nc1ccccc1Cl)c1cc(N2CCC(N3CCCC3)CC2)cc(C(F)(F)F)c1 [Compound 6]
- EC50 [1]: 1720 nM

Compound: O=C(Nc1ccc(Cl)cc1)c1cc(N2CCC(N3CCCC3)CC2)cc(C(F)(F)F)c1 [Compound 7]
- EC50 [1]: 114 nM

Compound: O=C(Nc1cccc(Cl)c1)c1cc(N2CCC(N3CCCC3)CC2)cc(C(F)(F)F)c1 [Compound 8]
- EC50 [1]: 134 nM
- EC50 [2]: 888 nM
- shift in potency between 3D7 and W2 ([2]; W2 vs 3D7): ~6 fold
- AUC(0–5h)/dose [3]: 5.31 (min ug/mL)/(mg/kg)
- AUC(0-t) [3]: 3.92 µM·h
- Cmax at 5 h [3]: 1360 nM
- Tmax at 5 h [3]: 1 h

Compound: N#Cc1cccc(NC(=O)c2cc(N3CCC(N4CCCC4)CC3)cc(C(F)(F)F)c2)c1 [Compound 9]
- EC50 [1]: 146 nM

Compound: O=C(Nc1cccc(C(F)(F)F)c1)c1cc(N2CCC(N3CCCC3)CC2)cc(C(F)(F)F)c1 [Compound 10]
- EC50 [1]: 174 nM

Compound: O=C(Nc1ccc(Cl)c(Cl)c1)c1cc(N2CCC(N3CCCC3)CC2)cc(C(F)(F)F)c1 [Compound 11]
- EC50 [1]: 54 nM

Compound: O=C(Nc1ccc(Br)c(Cl)c1)c1cc(N2CCC(N3CCCC3)CC2)cc(C(F)(F)F)c1 [Compound 12]
- EC50 [1]: 98 nM

Compound: O=C(Nc1cc(Cl)cc(Cl)c1)c1cc(N2CCC(N3CCCC3)CC2)cc(C(F)(F)F)c1 [Compound 13]
- EC50 [1]: 48 nM
- AUC(0–5h)/dose [3]: 7.01 (min ug/mL)/(mg/kg)
- AUC(0-t) [3]: 4.81 µM·h
- Cmax at 5 h [3]: 1640 nM
- Tmax at 5 h [3]: 5 h

Compound: O=C(Nc1cccc(Cl)c1)c1cc(N2CCC(N3CCCCC3)CC2)cc(C(F)(F)F)c1 [Compound 30]
- EC50 [1]: 82 nM
- EC50 [2]: 296 nM
- AUC(0–5h)/dose [3]: 6.10 (min ug/mL)/(mg/kg)
- AUC(0-t) [3]: 4.37 µM·h
- Cmax at 5 h [3]: 1370 nM
- Tmax at 5 h [3]: 1 h

Compound: O=C(Nc1cccc(C(F)(F)F)c1)c1cc(N2CCC(N3CCCCC3)CC2)cc(C(F)(F)F)c1 [Compound 31]
- EC50 [1]: 149 nM
- EC50 [2]: 299 nM

Compound: CC1CCN(C2CCN(c3cc(C(=O)Nc4cccc(Cl)c4)cc(C(F)(F)F)c3)CC2)CC1 [Compound 32]
- EC50 [1]: 140 nM
- EC50 [2]: 323 nM
- EC50 [4]: 268 nM
- EC50 [5]: 309 nM
- EC50 [6]: 83 nM
- EC50 [7]: 94 nM
- EC50 [8]: 81 nM
- EC50 [9]: 141 nM
- EC50 [10]: 138 nM
- EC50 [11]: 306 nM
- EC50 [12]: 218 nM
- EC50 [13]: 146 nM
- EC50 [14]: 150 nM
- EC50 [15]: 104 nM
- EC50 [16]: 120 nM
- spread of potencies across the strain panel [17]: ≤ 3 fold
- cytotoxicity TC50 [18]: greater than 8 μM
- cytotoxicity TC50 [19]: greater than 8 μM
- cytotoxicity TC50 [20]: greater than 8 μM
- cytotoxicity TC50 [21]: greater than 8 μM
- cytotoxicity TC50 [22]: greater than 8 μM
- cytotoxicity TC50 [23]: greater than 8 μM
- selectivity ratio [24]: > 20
- AUC(0–5h)/dose [3]: 11.42 (min ug/mL)/(mg/kg)
- AUC(0-t) [3]: 7.93 µM·h
- Cmax at 5 h [3]: 2280 nM
- Tmax at 5 h [3]: 5 h
- solubility thermodynamic [25]: 26 µg/mL (≈ 54.2 µM)
- extraction ratio [26]: 0.383 ± 0.04
- microsomal CLint [26]: 21.4 µL/min/mg

Compound: O=C(Nc1cccc(C(F)(F)F)c1)c1cc(N2CCC(N3CCCCC3=O)CC2)cc(C(F)(F)F)c1 [Compound 33]
- EC50 [1]: 1490 nM
- EC50 [2]: 1410 nM

Compound: CC1CCCN(C2CCN(c3cc(C(=O)Nc4cccc(C(F)(F)F)c4)cc(C(F)(F)F)c3)CC2)C1 (stereo not shown) [Compound 34]
- EC50 [1]: 58 nM
- EC50 [2]: 211 nM

Compound: O=C(Nc1cccc(C(F)(F)F)c1)c1cc(N2CCc3ccccc3C2)cc(C(F)(F)F)c1 [Compound 35]
- EC50 [1]: 175 nM
- EC50 [2]: 635 nM
- AUC(0–5h)/dose [3]: 2.33 (min ug/mL)/(mg/kg)
- AUC(0-t) [3]: 1.67 µM·h
- Cmax at 5 h [3]: 672 nM
- Tmax at 5 h [3]: 0.5 h
